According to patent US8357659B2, “Method of treating pain or itching with APETx2 peptide toxin” (priority 2008, dated 2013):

Test system: ASIC type current of cutaneous neurons of the spinal ganglia
Assay: Whole cell patch clamp of native ASIC currents in cutaneous neurons of the spinal ganglia
Type: cell-based, rat
Details: pH 6.6; FIG. 1C
Method: The neurons of the dorsal root ganglion (spinal ganglia or DRG) innervating the skin were labelled by subcutaneous injections of 5×1 μl of Dil fluorescent dye (5% DMSO, Molecular Probes) in the dorsal side of the rats' hind paws. The dye was injected two weeks before the rats were sacrificed in order to prepare a primary culture of dorsal root ganglion.
The lumbar dorsal root ganglia L3-L6 of Wistar rats (8-11 weeks) were dissected bilaterally and separated enzymatically with 0.1% collagenase. The cells were subsequently plated on 35 mm Petri dishes covered with collagen and cultured at 37° C. (95% air/5% CO2) in DMEM medium containing 5% of foetal calf serum. The electrophysiological experiments were performed 1 to 8 days after seeding.
The whole cell configuration of the patch clamp method was used ([ref. 48]) in order to measure the membrane currents (imposed voltage) or the membrane potentials (imposed current). The recordings were performed at ambient temperature using an RK-400 amplifier (Bio-Logic Science Instruments) with a 3 kHz low-pass filter (Krohn-Hite). The data were sampled at 10 kHz, digitised using a Digidata 1322A A-D/D-A converter (Axon Instruments) and recorded on a hard disk using pClamp software (version 9.2.0.11, Axon Instruments). The recording probes (1-4 MOhms) contained (in mM): 135 KCl, 2.5 Na2-ATP, 2 MgCl2, 2.1 CaCl2, 5 EGTA, 10 HEPES (pH 7.25 with KOH). Various different buffers and drugs of interest were added to the transfected cells considered individually using an internally developed microinfusion system controlled by microelectrovalves (Sirai, Italy) allowing rapid changes of solution. The control bath solution contained (in mM): 145 NaCl, 5 KCl, 2 MgCl2, 2 CaCl2, 10 HEPES (pH 7.4 with NaOH). The MES medium was used instead of the HEPES medium in order to buffer the solution at a pH ranging from 6 to 5, and the ASIC currents were induced by rapid changes of a control solution at pH 7.4 to an acid test solution using the microinfusion system. For the experiments conducted on the DRG neurons, glucose (10 mM) was added to the control bath solution. Hypertonic conditions were obtained by adding mannitol or sucrose to the external bath solutions, as indicated in the text.

In the case of “peptide of 42 amino acids (SEQ ID NO: 3), three disulphide bonds, from sea anemone Anthopleura elegantissima; blocks ASIC3 [APETx2]”, the “sensitivity of the native ASIC currents to the toxin” value is reported as “partial sensitivity”.
